Data published in patent US9145415B2, “Nitrogen-containing heterocyclic compound or salt thereof” (FUJIFILM Corporation, priority 2012, dated 2015).
Like-named read-outs stand apart in the source and are kept apart here.

Experiments:
[1] = test system: MV4-11 cells; test: Leukemia cell proliferation inhibition test (ATPlite), MV4-11; type: cell-based; conditions: read-out: MV4-11 cell proliferation inhibition effect
Outline: (§1)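 Luminescent ATP read-out (firefly luciferase) used as a total cell count after 72 h compound exposure at 37° C, 5% CO2. Cells: 10,000/well in RPMI + 10% FBS. GI50 = 50% inhibition relative to 0.1% DMSO, from a sigmoid dose-response fit; duplicates.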

[2] = biological target: T1, human FLT3 protein (FLT3 (WT)) (Homo sapiens, UniProt P36888); test: FLT3 inhibition test (FLT3 enzyme inhibition, time-resolved fluorescence of substrate peptide phosphorylation); type: biochemical; conditions: read-out: FLT3 (WT) enzyme inhibition activity
T1 construct: human FLT3 protein (intracellular region, 564 to 993 aa); GST; purchased Carna Biosciences; host or cells: baculovirus expression system
T1 sequence (P36888 564-993): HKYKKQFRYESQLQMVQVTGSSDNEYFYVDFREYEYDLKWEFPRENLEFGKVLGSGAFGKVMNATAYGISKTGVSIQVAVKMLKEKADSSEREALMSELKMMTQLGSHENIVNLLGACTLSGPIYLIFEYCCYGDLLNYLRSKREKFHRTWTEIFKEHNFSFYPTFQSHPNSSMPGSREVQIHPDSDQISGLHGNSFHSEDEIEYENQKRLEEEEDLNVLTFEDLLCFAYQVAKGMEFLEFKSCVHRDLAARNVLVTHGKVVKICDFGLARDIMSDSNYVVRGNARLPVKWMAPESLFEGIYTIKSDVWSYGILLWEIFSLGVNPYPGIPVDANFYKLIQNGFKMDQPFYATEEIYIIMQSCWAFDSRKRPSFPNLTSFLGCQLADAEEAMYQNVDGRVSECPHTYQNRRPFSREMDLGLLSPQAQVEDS
Outline: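 Wild-type human FLT3 (1.2 μg) pre-incubated with compound 15 min at 25° C in 100 mM HEPES pH 7.5, 10 mM MgCl2, 25 mM NaCl, 1 mM DTT. Reaction started with substrate peptide and ATP (final 50 μM), run 30 min at 25° C; phosphorylation read by time-resolved fluorescence.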

[3] = test system: Molm-13 cells; test: Leukemia cell proliferation inhibition test (ATPlite), Molm-13; type: cell-based; conditions: read-out: MOLM13 cell proliferation inhibition effect
Outline: as §1

[4] = Homo sapiens, MV4-11, MV4-11 cell
[5] = Homo sapiens, MOLM-13, MOLM13 cell
[6] = Homo sapiens, MV4-11, 72 h, MV4-11, 72 hours culture, ATPlite, GI50 per method
[7] = GST-fused human FLT3 (564 to 993 aa), ATP 50 μM
[8] = Homo sapiens, MOLM-13, 72 h, Molm-13, 72 hours culture, ATPlite, GI50 per method

Structure (SMILES) | IC50 [1, 4] | IC50 ([2]; FLT3 (WT)) | IC50 [3, 5] | IC50 [1, 6] | IC50 [2, 7] | IC50 [3, 8] | IC50 ([1]; MV4-11, 72 hours culture, ATPlite, GI50 per method) | IC50 ([3]; Molm-13, 72 hours culture, ATPlite, GI50 per method)
CCCNc1nc(Nc2ccc(C(N)=O)cc2)ncc1CCCCCNC(=O)CNC(=O)/C=C/CN(C)C [Compound 7-29] |  |  |  | 10 to 100 nM | < 10 nM | 100 to 1000 nM |  | 
C=CC(=O)N(C)CC(=O)NCCCNC(=O)c1cnc(NCCc2ccncc2)nc1NCCC [Compound 2-23] |  |  |  | 10 to 100 nM | < 10 nM | < 10 nM |  | 
CCNc1nc(Nc2ccc(C#N)cc2)ncc1C#CCCCNC(=O)[C@H](C)N(C)C(=O)/C=C/CN(C)C [Compound 10-46] |  |  |  | < 10 nM | < 10 nM | < 10 nM |  | 
CCCNc1nc(Nc2cccc(F)c2)ncc1C#CCCCNC(=O)[C@H](CC)N(C)C(=O)/C=C/CN(C)C [Compound 7-17] |  |  |  | < 10 nM | < 10 nM | < 10 nM |  | 
CCCNc1nc(Nc2ccc(C#N)cc2)ncc1C#CCCCNC(=O)CNC(=O)/C=C/CN(C)C [Compound 7-57] |  |  |  | < 10 nM | < 10 nM | < 10 nM |  | 
CNc1nc(Nc2ccc(C#N)cc2)ncc1C#CCCCNC(=O)[C@@H]1C[C@H](F)CN1C(=O)/C=C/CN(C)C [Compound 7-87, (2S,4S)—N-(5-(2-((4-Cyanophenyl)amino)-4-(methylamino)pyrimidin-5-yl)-4-pentyn-1-yl)-1-((E)-4-(dimethylamino)-2-butenoyl)-4-fluoropyrrolidine-2-carboxamide] |  |  |  | < 10 nM | < 10 nM | < 10 nM |  | 
C[C@@H](C(=O)NCCCC#Cc1cnc(Nc2cccc(F)c2)nc1NCCN1CCOCC1)N(C)C(=O)/C=C/CN(C)C [Compound 10-6] |  |  |  | < 10 nM | < 10 nM | < 10 nM |  | 
CCCNc1nc(Nc2cccc(C(F)(F)F)c2)ncc1C#CCCCNC(=O)[C@H](C)N(C)C(=O)/C=C/CN(C)C [Compound 11-11] |  |  |  | 10 to 100 nM | < 10 nM | 10 to 100 nM |  | 
CCCNc1nc(Nc2cccc(C#N)c2)ncc1C#C[C@H]1C[C@@H](NC(=O)[C@H](C)N(C)C(=O)/C=C/CN(C)C)C1 [Compound 13-17] |  |  |  | < 10 nM | < 10 nM | < 10 nM |  | 
CCCNc1nc(Nc2ccc(C#N)cc2)ncc1C#CCCCNC(=O)CN(C(=O)/C=C/CN(C)C)C(C)C [Compound 7-40] |  |  |  | < 10 nM | < 10 nM | < 10 nM |  | 
C[C@@H](C(=O)NCCCC#Cc1cnc(Nc2cccc(F)c2)nc1NCCC#N)N(C)C(=O)/C=C/CN(C)C [Compound 10-8] |  |  |  | < 10 nM | < 10 nM | 10 to 100 nM |  | 
CCCNc1nc(Nc2cccc(F)c2)ncc1C#CCCCNC(=O)[C@@H]1CCCN1C(=O)/C=C/CN(C)C [Compound 8-15] |  |  |  |  | 10 to 100 nM |  | 100 to 1000 nM | 100 to 1000 nM
CCCNc1nc(Nc2cccc(F)c2)ncc1C#CCCCNC(=O)[C@@H]1C[C@H](OC)CN1C(=O)/C=C/CN(C)C [Compound 7-59] |  |  |  | < 10 nM | < 10 nM | < 10 nM |  | 
CCCNc1nc(Nc2ccc(C(N)=O)cc2)ncc1-c1ccc(CCNC(=O)CNC(=O)/C=C/CN(C)C)cc1 [Compound 16-3] |  |  |  | 100 to 1000 nM | < 10 nM | 100 to 1000 nM |  | 
C=CC(=O)N(C)CC(=O)NCCCNC(=O)c1cnc(Nc2ccc3cnncc3c2)nc1NCCC [Compound 6-10A, N-(3-(2-(N-methylacrylylamido)actamido)propyl)-2-((phthalazin-6-yl)amino)-4-(propylamino)pyrimidine-5-carboxamide] |  |  |  | 10 to 100 nM | < 10 nM | 100 to 1000 nM |  | 
CCCNc1nc(Nc2ccc(C#N)cc2)ncc1C#CCCCNC(=O)[C@H](COC)N(C)C(=O)/C=C/CN(C)C [Compound 7-55] |  |  |  | < 10 nM | < 10 nM | < 10 nM |  | 
C[C@@H](C(=O)NCCCC#Cc1cnc(Nc2cccc(F)c2)nc1Nc1ccc(C#N)cc1)N(C)C(=O)/C=C/CN(C)C [Compound 7-14] |  |  |  | < 10 nM | < 10 nM | 10 to 100 nM |  | 
C=CC(=O)NCC(=O)NCCCNC(=O)c1cnc(NCCc2ccncc2)nc1NCCC [Compound 2-2, N-(3-(2-(acrylylamido)actamido)propyl)-4-(propylamino)-2-((2-(pyridin-4-yl)ethyl)amino)pyrimidine-5-carboxamide] |  |  |  | 10 to 100 nM | < 10 nM | 10 to 100 nM |  | 
COCCCNc1nc(Nc2cccc(F)c2)ncc1C#CCCCNC(=O)[C@H](C)N(C)C(=O)/C=C/CN(C)C [Compound 10-1, (S,E)-4-(dimethylamino)-N-(1-((5-(2-((3-fluorophenyl)amino)-4-((3-methoxypropyl)amino)pyrimidin-5-yl)-4-pentyn-1-yl)amino)-1-oxopropan-2-yl)-N-methyl-2-butenamide] |  |  |  | < 10 nM | < 10 nM | 10 to 100 nM |  | 
C=C(C)C(=O)N(C)[C@@H](C)C(=O)Nc1cccc(NC(=O)c2cnc(Nc3ccc(C(N)=O)cc3)nc2NCCC)c1 [Compound 3-10] |  |  |  | 100 to 1000 nM | < 10 nM | 100 to 1000 nM |  | 
C=CC(=O)NCCCNC(=O)c1cnc(NCCc2ccncc2)nc1NCCC [Compound 2-21] |  |  |  | 10 to 100 nM | 10 to 100 nM | 10 to 100 nM |  | 
CNc1nc(Nc2cccc(F)c2)ncc1C#C[C@H]1C[C@@H](NC(=O)[C@H](C)N(C)C(=O)/C=C/CN(C)C)C1 [Compound 13-13, (E)-4-(Dimethylamino)-N—((S)-1-(((1S,3R)-3-((2-((3-fluorophenyl)amino)-4-(methylamino)pyrimidin-5-yl)ethynyl)cyclobutyl)amino)-1-oxopropan-2-yl)-N-methyl-2-butenamide] |  |  |  | < 10 nM | < 10 nM | < 10 nM |  | 
C[C@@H](C(=O)NCCCC#Cc1cnc(Nc2ccc(F)cc2)nc1N1CCN(C)CC1)N(C)C(=O)/C=C/CN(C)C [Compound 10-28] |  |  |  | < 10 nM | < 10 nM | 10 to 100 nM |  | 
CCCNc1nc(Nc2ccc(F)cc2)ncc1C#C[C@H]1C[C@@H](NC(=O)[C@H](C)N(C)C(=O)/C=C/CN(C)C)C1 [Compound 13-18] |  |  |  | < 10 nM | < 10 nM | < 10 nM |  | 

The remaining lines, values ahead:

IC50 [1, 4] | IC50 ([2]; FLT3 (WT)) | IC50 [3, 5] | IC50 [1, 6] | IC50 [2, 7] | IC50 [3, 8] | IC50 ([1]; MV4-11, 72 hours culture, ATPlite, GI50 per method) | IC50 ([3]; Molm-13, 72 hours culture, ATPlite, GI50 per method) | Structure (SMILES)
< 10 nM | < 10 nM | < 10 nM |  |  |  |  |  | CCCNc1nc(Nc2cnc3c(cnn3C)c2)ncc1C#CCCCNC(=O)[C@@H]1CCCN1C(=O)/C=C/CN(C)C [Compound 22-43, (S,E)-1-(4-(Dimethylamino)-2-butenoyl)-N-(5-(2-((1-methyl-1H-pyrazolo[3,4-b]pyridin-5-yl)amino)-4-(propylamino)pyrimidin-5-yl)-4-pentyn-1-yl)pyrrolidine-2-carboxamide]
 |  |  | 100 to 1000 nM | < 10 nM | 100 to 1000 nM |  |  | CCCNc1nc(Nc2ccc(C#N)cc2)nc(C)c1C#CCCCNC(=O)[C@H](C)N(C)C(=O)/C=C/CN(C)C [Compound 19-1, (S,E)-N-(1-((5-(2-((4-cyanophenyl)amino)-4-methyl-6-(propylamino)pyrimidin-5-yl)-4-pentyn-1-yl)amino)-1-oxopropan-2-yl)-4-(dimethylamino)-N-methyl-2-butenamide]
< 10 nM | < 10 nM | < 10 nM |  |  |  |  |  | CCCNc1nc(Nc2ccc3[nH]nc(OC)c3c2)ncc1C#CCCCNC(=O)[C@@H]1CCCN1C(=O)/C=C/CN(C)C [Compound 22-67]
10 to 100 nM | < 10 nM | < 10 nM |  |  |  |  |  | CCCNc1nc(Nc2ccc3c(OC)nn(COCC)c3c2)ncc1C#CCCCNC(=O)[C@H](C)N(C)C(=O)/C=C/CN(C)C [Compound 22-50]
< 10 nM | 10 to 100 nM | < 10 nM |  |  |  |  |  | CNc1nc(Nc2ccc3c(c2)c(F)nn3C)ncc1C#CCCCNC(=O)[C@H](C)N(C)C(=O)/C=C/CN(C)C [Compound 21-49]
< 10 nM | < 10 nM | < 10 nM |  |  |  |  |  | CCCNc1ncc(C#CCCCNC(=O)[C@H](C)N(C)C(=O)/C=C/CN(C)C)c(Nc2ccc(OC)cc2)n1 [Compound 21-38]
< 10 nM | < 10 nM | < 10 nM |  |  |  |  |  | CCCNc1nc(Nc2ccc3ncccc3c2)ncc1C#CCCCNC(=O)[C@H](C)N(C)C(=O)/C=C/CN(C)C [Compound 22-2]
< 10 nM | < 10 nM | < 10 nM |  |  |  |  |  | CCCNc1nc(Nc2cnc3c(c2)c(C)nn3CCOC)ncc1C#CCCCNC(=O)[C@@H]1CCCN1C(=O)/C=C/CN(C)C [Compound 22-46]
< 10 nM | < 10 nM | < 10 nM |  |  |  |  |  | CCCNc1nc(Nc2ccc3c(F)nn(C)c3c2)ncc1C#CCCCNC(=O)[C@H](C)N(C)C(=O)/C=C/CN(C)C [Compound 22-58]
